Source: patent publication US10889553B2, “Asymmetric triazole benzamide derivatives and the compositions and methods of treatment regarding the same” (NysnoBio Ireland DAC, priority 2017, dated 2021)
Where “and” joins values, the source holds several entries; their conditions need not be identical. Equal values may be shown once.

Assays:
[1] = Microsomal stability assay, rat liver microsomes; type: in vitro ADME; conditions: pH 7.4; rat liver microsomes 1.0 mg/mL, 1 μM compound, NADPH; read-out: RLM t1/2
Experimental: Compounds were also tested for metabolic stability in both rat liver microsomes (RLM) and the compounds are tested for human liver microsomes (HLM) and their half-life is calculated (See Tables 5A and 5B). The assay was performed as follows. The total volume for each incubation was 250 μL. A 100 μM DMSO solution of compound (diluted from 10 mM stock solution) was spiked into 50 mM KH2PO4 (pH 7.4) buffer containing liver microsome at a concentration of 1.0 mg/mL. The reaction was initiated by the addition of 50 μL of 1 mM NADPH. The final concentration of each compound was 1 μM (1% DMSO). The positive controls, phenacetin for CYP1A2, diclofenac for CYP2C9, omeprazole for CYP2C19, dextromethorphan for CYP2D6 and midazolam for CYP3A4 were added to a separate tube with the final substrate concentrations of 1 μM (1% DMSO) for evaluating the enzyme activities in the liver microsomes. At 0, 15, 30 and 60 min, an aliquot of 15 μL reaction mixtures were removed and 200 μL of methanol (with internal standard of 25 ng/mL propranolol) was added to quench the reaction. The resulting mixture was centrifuged and supernatant was used for LC-MS/MS analysis.
The signals for each compound, or the metabolites for the probe substrates and the internal standard were integrated and the peak area ratios to internal standard were generated. Percent parent remaining at a specified timepoint was calculated based on the peak area ratios at time 0 (as 100%) for in vitro metabolic stability studies in liver microsome and hepatocyte. The observed rate constant (kobs) for the metabolism of substrates was calculated by plotting the natural log of percentage substrate remaining versus time of incubation with the slope being kobs. The half-life (T1/2) was calculated according to the following equation: T1/2=[…]

Parkin ligase = target: T1, Parkin ligase (Homo sapiens, UniProt O60260); assay: Activity-Based Probe Assay using Ubiquitin vinyl sulfone probe (TR-FRET); type: biochemical; conditions: heat activated Parkin, HA-Ub-VS probe, activation EC50; read-out: Probe Assay EC50 (μM) [Example 2]
T1 sequence (O60260 1-465): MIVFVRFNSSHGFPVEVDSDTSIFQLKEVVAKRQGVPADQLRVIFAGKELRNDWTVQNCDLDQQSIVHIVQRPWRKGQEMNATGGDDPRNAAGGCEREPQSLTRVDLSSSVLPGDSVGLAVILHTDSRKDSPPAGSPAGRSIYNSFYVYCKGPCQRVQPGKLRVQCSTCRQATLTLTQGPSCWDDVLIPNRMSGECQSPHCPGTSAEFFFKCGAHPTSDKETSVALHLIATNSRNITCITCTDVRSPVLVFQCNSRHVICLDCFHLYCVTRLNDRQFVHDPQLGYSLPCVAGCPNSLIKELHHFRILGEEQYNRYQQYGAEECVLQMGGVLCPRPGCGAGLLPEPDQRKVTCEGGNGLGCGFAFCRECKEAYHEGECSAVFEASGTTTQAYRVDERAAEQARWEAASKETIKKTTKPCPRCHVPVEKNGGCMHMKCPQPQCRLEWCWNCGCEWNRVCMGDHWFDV
Experimental: An Ubiquitin vinyl sulfone probe can be used that irreversibly binds to the active site cysteine of Parkin ligase. Covalent attachment of the probe to the Parkin can be monitored by TR-FRET. Candidate activator compounds can be identified by increasing the activity of Parkin ligase due to an increase in TR-FRET signal. Screening for activating compounds can be distinguished from the controls as follows: 100% activation signal=Heat activated Parkin+100 nM control activator in DMSO. 0% activation signal=Heat activated Parkin+DMSO only. Parkin activators can be identified by an increase of the 0% activation signal TR-FRET signal. Assay Conditions: Materials: • Assay Plate: White 384 well plate (Corning 3572) • Enzyme: Parkin-His tagged 203 μM (10.5 mg/ml) • Probe: Ubiquitin vinyl-sulfone (HA-Ub-VS Boston Biochem U-212) • DMSO: DMSO (Sigma cat #D4540-100ML) • Reaction Buffer: 50 mM HEPES (pH 8.5), 150 mM NaCl, 0.01% Tween 20, 0.1% BSA • Detection Buffer: 50 mM HEPES (pH 8.5), 150 mM NaCl, 0.01% Tween 20, 0.1% BSA, 800 mM KF • Detection Reagent A: 2.6 nM Anti-6HIS-Eu cryptate and 40 nM Anti-HA-XL665 in detection buffer • Eu cryptate: Anti-6HIS-Eu cryptate (CisBio 61HISKLA) • XL665: Anti-HA-XL665 (CisBio 610HAXLA) Enzyme Reaction (15 Min Pre Incubation Parkin with Activator Only) • Parkin: 40 nM • HA-Ub-VS Probe: 70 nM • Activator/DMSO: 2× Activator/2% DMSO Reaction time: 60 minutes Temperature: 22° C. Total volume: 10 μl reaction Detection Reaction Take […] of Enzyme Reaction above and add 10 μl detection Reagent A under the following conditions: • Reaction time: 60 minutes • Temperature: 22° C. • Total volume: 20 μl
Assay procedure (Using HP D-300 compound dispenser and Bravo for the operation):
1) Heat activate Parkin in reaction buffer (500 μl/1.5 ml tube: Eppendorf Thermomixer 5 minutes, 400 rpm at 58° C. and put on ice until needed).
2) Load assay plate wells with 4.8 μl 84.5 nM Parkin in reaction buffer by use of Bravo.
3) Deliver 0.2 μl 200× activator candidates in DMSO by use of HP D-300 compound dispenser. Highest 200× concentration=[…] and then twofold dilutions.
4) Spin 1000 rpm, 2 minutes, at room temp.
5) Incubate plate for 15 minutes at room temp.
6) Add 5 μl 140 nM HA-Ub-VS Probe in reaction buffer by use of Bravo.
7) Spin 1000 rpm, 2 minutes, at room temp.
8) Incubate plate for 60 minutes at room temp.
9) Add 10 μl 2.6 nM Anti-6HIS-Eu cryptate and 40 nM […] in detection buffer.
10) Spin 1000 rpm, 2 minutes, at room temp.
11) Incubate plate for 60 minutes at room temp.
12) Read plates on Perkin Elmer Envision instrument with the following parameters:
LANCE dual laser protocol loaded into the Envision® software
Top Mirror: LANCE/DELFIA Duel/Bias (Bar code 446)
Emission Filter: APC 665 EM (Bar code 205)
2nd Emission Filter: Europium 615 EM (Bar code 203)
Read 655 nm (channel 1) and 615 nm (channel 2) wavelengths on Envision®
Data Analysis: The Data can be read in CSV files. There are two tables in those CSV files, which are the values of 655 nm (channel 1) and 615 nm (channel 2) wavelengths respectively. The data is converted to an HTRF Ratio=(Channel 1/Channel 2)*10,000
The average of all the 0 μM controls (DMSO only)=BKGD (Background—0% activation). Subtract BKGD from each HTRF Ratio value=HTRF−BKGD. The average of all the […] 100 nM control activator in DMSO controls=Max (100% activation). The following equation is then used to calculate % Activation for each well/candidate as follows: % Activation=(HTRF−BKGD/Max)*100.
Graphpad Prism was used with Transform X values: X=Log(X) and nonlinear regression (dose-response-stimulation): Log(agonist) vs Response−variable slope (four parameters) with constrains set to Bottom=0 and Top=100.
The Activity-Based Probe Assay was performed with various compounds in Tables 1, 2, 3A and 3B.

TOV-21G (ovarian) = assay: Cancer cell proliferation assay (acid phosphatase); type: cell-based; conditions: Homo sapiens, TOV21G, 72 h, Table 6A; 72 hrs; read-out: TOV-21G IC50
Experimental: (§1) Measurement of the inhibitive effect of compounds on cancer cell proliferation was performed. Various cell lines were tested, including HCT-116 (colon); A549 (lung); TOV-21G (ovarian); Calu-6 (lung); and LS-174T (colon); and cell lines H1703 (Lung) and SKOV3 (ovarian); JEKO-1 (lymophoma); TOV-112D (ovarian) are tested. The assays were performed under the following conditions: Cells are harvested at a concentration of 4×10^4 cells/ml in media. Volumes of 100 μl/well of these cell suspensions were added to a 96 well plate using a multichannel pipette. Plates were gently agitated to ensure an even dispersion of cells over a given plate. Cells were then incubated at 37° C., 5% CO2 overnight. Following this, 100 μl of compound at varying concentrations was added to wells in triplicate. Control wells are those with 100 μl media containing 0.33% DMSO added to cell suspension (this is the equivalent volume of DMSO found in the highest concentration of drug). Plates were then gently agitated, as above, and incubated at 37° C., 5% CO2 for 72 hrs (control wells have reached 80-90% confluency). Assessment of cell proliferation in the presence of the compound was determined by the acid phosphatase assay.
(§2) Following the incubation period of 72 hrs, media was removed from the plates. Each well on the plate was washed twice with 100 μl PBS. This was then removed and 100 μl of freshly prepared phosphatase substrate (10 mM p-nitrophenol phosphate in 0.1M sodium acetate, 0.1% triton X-100, pH 5.5) was added to each well. The plates were then incubated in the dark at 37° C. for 2 hours. Colour development was monitored during this time. The enzymatic reaction was stopped by the addition of 50 μl of 1N NaOH. The plate was read in a dual beam plate reader at 405 nm with a reference wavelength of 620 nm. The absorbance reading of the latter is subtracted from the former, and the effect of the drug on cell proliferation was then measured as a percentage against the control cells (DMSO), which is taken as 0% inhibition.

A549 (lung) = assay: Cancer cell proliferation assay (acid phosphatase); type: cell-based; conditions: Homo sapiens, A549, 72 h, Table 6A; 72 hrs; read-out: A549 IC50
Experimental: as §1, §2

HCT-116 (colon) = assay: Cancer cell proliferation assay (acid phosphatase); type: cell-based; conditions: Homo sapiens, HCT-116, 72 h, Table 6A; 72 hrs; read-out: HCT-116 IC50
Experimental: as §1, §2

Structure (SMILES) | half-life at 1 μM [1] [h] | EC50 (Parkin ligase) | IC50 (TOV-21G (ovarian)) [µM] | IC50 (A549 (lung)) [µM] | IC50 (HCT-116 (colon)) [µM]
Cc1ccccc1C(=O)Nc1nc(NC(=O)c2ncco2)n(-c2ccccc2)n1 [Compound 10] | 0.45 | 30 µM | – | – | –
Cc1ccccc1C(=O)Nc1nc(NC(=O)c2ccno2)n(-c2cccc(F)c2)n1 [Compound 73] | – | 12 µM | – | 2.5 | 2.5
C#Cc1cccc(C(=O)Nc2nc(NC(=O)c3ccc(N=[N+]=[N-])cc3)n(-c3ccccc3)n2)c1 [Compound 18] | 1.72 | 1 µM and 3 µM | – | – | –
C#Cc1cccc(C(=O)Nc2nc(NC(=O)c3ccc(N=[N+]=[N-])cc3)nn2-c2ccccc2)c1 [Compound 12] | 2.1 | 1 µM and 3 µM | – | – | –
Cc1ccccc1C(=O)Nc1nc(NC(C)(C)c2ccccc2)nn1-c1ccccc1 [Compound 152] | – | – | – | – | > 2.5
Cc1ccccc1C(=O)Nc1nc(NC(=O)c2c(F)cc(F)cc2F)nn1-c1ccccc1 [Compound 149] | – | – | > 2.5 | – | > 2.5
Cc1ccccc1C(=O)Nc1nc(NC(=O)c2cocn2)n(-c2ccccc2)n1 [Compound 9] | 0.967 | 32 µM | – | – | –
O=C(Nc1nc(NC(=O)c2cccnc2)n(-c2ccc(OC(F)(F)F)cc2)n1)c1cccnc1 [Compound 61] | – | 12 µM and 10 µM and 13 µM | 1.4 | – | 2.1
Cc1ccccc1C(=O)Nc1nc(NC(=O)c2ncccn2)n(-c2ccccc2)n1 [Compound 28] | 0.333 | 22 µM | – | – | –
Cc1ccccc1C(=O)Nc1nc(NC(=O)c2ccc(F)cc2F)nn1-c1ccccc1 [Compound 150] | – | – | > 2.5 | – | > 2.5

Continued, values first:

half-life at 1 μM [1] [h] | EC50 (Parkin ligase) | IC50 (TOV-21G (ovarian)) [µM] | IC50 (A549 (lung)) [µM] | IC50 (HCT-116 (colon)) [µM] | Structure (SMILES)
0.317 | 3 µM | – | – | – | COc1cccc(C(=O)Nc2nc(NC(=O)c3cccc(OC)c3)n(-c3ccccc3)n2)c1 [Compound 27]
– | 7 µM | 2.4 | 2.6 | – | Cc1ccccc1C(=O)Nc1nc(NC(=O)c2ccccc2C)n(-c2ccc(N3CCC(O)C3)cc2)n1 (stereo not drawn) [Compound 58]
– | 5 µM | 2.5 | – | 2.5 | O=C(Nc1nc(NC(=O)c2ccncc2)n(-c2ccc(OC(F)(F)F)cc2)n1)c1ccncc1 [Compound 65]
1.22 | 4 µM | – | – | – | Cc1ccccc1C(=O)Nc1nc(-c2ccccc2O)nn1-c1ccc(OC(F)(F)F)cc1 [Compound 137]
1.18 | 4 µM | – | – | – | C#Cc1ccccc1C(=O)Nc1nc(NC(=O)c2cccc(N=[N+]=[N-])c2)n(-c2ccccc2)n1 [Compound 8]
0.85 | 7 µM | – | – | – | Cc1ccccc1C(=O)Nc1nc(NC(=O)c2cccnn2)n(-c2ccccc2)n1 [Compound 13]
– | 3 µM | – | – | 2.5 | O=C(Nc1nc(NC(=O)c2ccncc2)n(-c2ccc(C(F)(F)F)cc2)n1)c1ccncc1 [Compound 63]
0.783 | 2 µM | – | – | – | C#Cc1cccc(C(=O)Nc2nc(NC(=O)c3cccc(N=[N+]=[N-])c3)nn2-c2ccccc2)c1 [Compound 29]
1.4 | 7 µM | – | – | – | Cc1ccccc1C(=O)Nc1nc(-c2cccc(F)n2)nn1-c1ccccc1 [Compound 123]
2.18 | 3 µM | – | – | – | Cc1ccccc1C(=O)Nc1nc(NC(=O)C2CCN2)nn1-c1ccccc1 (stereo not drawn) [Compound 5]
2.45 | 2 µM | – | – | – | C#Cc1cccc(C(=O)Nc2nc(NC(=O)c3cccc(N=[N+]=[N-])c3)n(-c3ccccc3)n2)c1 [Compound 11]
